Converted amounts (≈) assume the structure as drawn.
Tests used:
[1] = system: Androgen-induced PSA-luciferase activity; assay: Androgen-induced PSA (6.1 kb)-luciferase reporter assay in transiently transfected LNCaP cells; type: cell-based; settings: Homo sapiens, R1881 1 nM, 24 h
Procedure: To determine the IC50, treatments were normalized to the maximum activity with androgen-induction (in the absence of test compounds, vehicle only) (Table 12).
Luciferase Assay: Lysates were thawed on ice then collected into V-bottom 96-well tissue culture plates. Lysates were centrifuged at 4° C. for 5 minutes at 4000 rpm. To measure luminescence of LNCaP cell lysates the Firefly Luciferase Assay System (Promega) was employed, according to manufacturer's protocol.
Comparisons between treatment and control groups were compared using Two-Way ANOVA with post-hoc Dunnett's and Tukey's tests. Differences were considered statistically significant at P values less than 0.05. Densitometric quantification of relative AR levels was determined by Image.

[2] = Approximate solubility by solvent aliquot addition, visual inspection; type: physicochemical; settings: organic solvent or mixture, thermodynamic from solid
Procedure: The approximate solubility of Compound I in various organic solvents was determined by adding solvent aliquots to weighed samples Compound I. Weighed samples of Compound I were treated with aliquots of the test solvents or solvent mixtures at ambient temperature. Complete dissolution of the test material was determined by visual inspection. Solubility was estimated based on the total solvent volume used to provide complete dissolution. The actual solubility may be greater than the value calculated because of the use of solvent aliquots that were too large or due to a slow rate of dissolution. If complete dissolution was not achieved during the experiment, the solubility is expressed as “less than” (<). If complete dissolution was achieved by only one aliquot addition, the value is reported as “larger than” (>).

[3] = Amorphous solubility by slow addition from organic stock into aqueous media (UV/Vis scattering, DLS); type: physicochemical; settings: for solubility: kinetic from dmso stock
Source text: Solubility: Generally, the solubility of an amorphous form is higher than that of the corresponding crystal form, due to the lack of crystalline lattice forces in the amorphous state. Solubility of the amorphous form of Compound I was studied by slow addition of the amorphous form from an organic stock solution into the pH 6.5 phosphate-buffered saline (PBS) solution or 0.5% wt simulated intestinal fluid (SIF) in pH 6.5 PBS. When the amorphous solubility is reached, a drug-rich phase forms which typically scatters light (e.g., liquid-liquid phase separation or LLPS), which can be detected by scattering of UV/Visible light and/or by dynamic light scattering (DLS).
No scattering event prior to crystallization was observed.

[4] = Equilibrium solubility acquired at 24 hours; type: physicochemical; settings: organic solvent or mixture, thermodynamic from solid
[5] = Physical stability of solid forms (drying, storage, slurry; XRPD); type: physicochemical; settings: for XRPD result after stirring: RT, 4 d
Procedure: Based on experimental conditions to generate Material B and its drying studies, without being bound to any theory, Material B could be a solvated material which can convert to Material C upon drying.
In order to evaluate the relative stability between Form A and Material C, a competitive slurry was performed. About equal amounts (by mass) of Material C (mixture w/some Form A) and Form A were added to acetone so that solids persisted and were stirred at room temperature for 9 days. Solids were isolated by centrifugation using Spin-X centrifuge tubes equipped with a 0.45 μm nylon filter. Beige solids were observed. […] Material C could be an anhydrous material.
Further analyses including ^1H NMR and TGA were also collected on this amorphous sample (Table 10). The ^1H NMR spectrum was consistent with the chemical structure of Compound I and contains trace amount of DCM. By TGA (FIG. 9), about 1.0 wt % loss is observed from 45-200° C., which is likely due to the residual DCM and moisture in the material. The dramatic change in the slope of the TGA thermogram starting at 280° C. (onset) is likely associated with the decomposition of the material. […] A repeated rotary evaporation attempt from DCM solution generated disordered Compound I Form A (FIG. 7, second spectrum from bottom) after the sample was secondary dried at ambient temperature under vacuum for 3 days, which provides further evidence that amorphous Compound I is not physically stable.
Crystallization studies were performed on this disordered material (Table 10) and solids were stirred in acetone and H2O for 4 days at ambient conditions. Both experiments generated crystalline Form A (FIG. 10, bottom two spectra).

[6] = Dynamic vapor sorption (DVS) analysis; type: physicochemical; set-up: Hysteresis: unit not given here
Procedure: In one embodiment, the crystalline forms are characterized by Dynamic Vapor Sorption (DVS). The DVS profile is typically expressed by a diagram plotting the sample relative humidity (RH) versus the change in mass (%). The DVS profile provides information on hygroscopicity of the crystalline form at different RH conditions.
DVS (dynamic vapor sorption) analysis was carried out on Form A (Table 2, FIG. 3).

[7] = target RH 95.0 %, sample RH 96.0 %

SMILES: CC(O)(CS(=O)(=O)c1ccc(F)cc1)C(=O)Nc1ccc(C#N)c(C(F)(F)F)c1 (stereo not drawn) [Bicalutamide]
- IC50 [1]: 306 nM

SMILES: CC(C)(c1ccc(OCc2ccnc(NS(C)(=O)=O)n2)cc1)c1cc(Cl)c(OCCCl)c(C#N)c1 [Compound I, N-{4-[(4-{2-[3-chloro-4-(2-chloroethoxy)-5-cyanophenyl]propan-2-yl}phenoxy)methyl]pyrimidin-2-yl}methanesulfonamide]
- solubility ([2]; dioxane (printed 'dioxant'), dioxant, ambient temperature, read-out: Solubility): > 107000 µg/mL
- solubility ([2]; DCM, ambient temperature, read-out: Solubility): 20000 µg/mL (≈ 37.4 mM)
- solubility ([2]; DMA, ambient temperature, read-out: Solubility): > 79000 µg/mL
- solubility ([2]; Et2O, ambient temperature, read-out: Solubility): < 2000 µg/mL
- solubility ([2]; MEK, ambient temperature, read-out: Solubility): 6000 µg/mL (≈ 11.2 mM)
- solubility ([2]; MTBE, ambient temperature, read-out: Solubility): < 1000 µg/mL
- solubility ([2]; NMP, ambient temperature, read-out: Solubility): > 117000 µg/mL
- solubility ([2]; THF, ambient temperature, read-out: Solubility): 54000 µg/mL (≈ 101 mM)
- solubility ([2]; iPrOAc, ambient temperature, read-out: Solubility): < 1000 µg/mL
- solubility ([2]; p-dioxane, from observations on samples at much larger scales, read-out: Approximate solubility): 35000 to 103000 µg/mL (≈ 65.4 to 192 mM)
- solubility ([2]; toluene, ambient temperature, read-out: Solubility): 1000 µg/mL (≈ 1.87 mM)
- IC50 [1]: 535 nM
- Crystalline solubility [3]: very low
- solubility at 24 h ([4]; ACN): 2040 µg/mL (≈ 3.81 mM)
- solubility at 24 h ([4]; DMSO): > 12000 µg/mL
- solubility at 24 h ([4]; EtOAc): 1970 µg/mL (≈ 3.68 mM)
- solubility at 24 h ([4]; EtOH): 170 µg/mL (≈ 0.317 mM)
- solubility at 24 h ([4]; MeOH): 210 µg/mL (≈ 0.392 mM)
- solubility at 24 h ([4]; acetone): 5300 µg/mL (≈ 9.9 mM)

SMILES: CC(C)(c1ccc(OCc2ccnc(NS(C)(=O)=O)n2)cc1)c1cc(Cl)c(OCCCl)c(C#N)c1 [Disordered]
- XRPD result after stirring ([5]; H2O): Form A
- XRPD result after stirring ([5]; acetone): Form A

SMILES: CC(C)(c1ccc(OCc2ccnc(NS(C)(=O)=O)n2)cc1)c1cc(Cl)c(OCCCl)c(C#N)c1 [Form A, N-{4-[(4-{2-[3-chloro-4-(2-chloroethoxy)-5-cyanophenyl]propan-2-yl}phenoxy)methyl]pyrimidin-2-yl}methanesulfonamide]
- Solids recovered after DVS analysis, by XRPD ([6]; after DVS cycle): consistent with Form A
- Total weight gain during sorption ([6]; from 5% to 95% RH): 5.474%
- Weight gain during sorption ([6]; from 55% to 85% RH): 1.978 wt %
- Weight gain during sorption ([6]; from 85% RH to 95% RH): 3.106 wt %
- Weight loss during desorption ([6]; from 95% RH to 5% RH): 5.472%
- Sorp Mass Change ([6]; target RH 5.0 %, sample RH 4.9 %): 0.000%
- Desorp Mass Change ([6]; target RH 5.0 %, sample RH 5.4 %): 0.002%
- Hysteresis ([6]; target RH 15.0 %): 0.013
- Sorp Mass Change ([6]; target RH 15.0 %, sample RH 15.4 %): 0.055%
- Desorp Mass Change ([6]; target RH 15.0 %, sample RH 16.1 %): 0.060%
- Hysteresis ([6]; target RH 25.0 %): 0.036
- Sorp Mass Change ([6]; target RH 25.0 %, sample RH 24.9 %): 0.111%
- Desorp Mass Change ([6]; target RH 25.0 %, sample RH 25.6 %): 0.146%
- Hysteresis ([6]; target RH 45.0 %): 0.474
- Sorp Mass Change ([6]; target RH 45.0 %, sample RH 44.8 %): 0.242%
- Desorp Mass Change ([6]; target RH 45.0 %, sample RH 45.6 %): 0.716%
- Hysteresis ([6]; target RH 55.0 %): 0.650
- Sorp Mass Change ([6]; target RH 55.0 %, sample RH 54.5 %): 0.390%
- Desorp Mass Change ([6]; target RH 55.0 %, sample RH 55.5 %): 1.040%
- Hysteresis ([6]; target RH 65.0 %): 0.452
- Desorp Mass Change ([6]; target RH 65.0 %, sample RH 65.6 %): 1.438%
- Sorp Mass Change ([6]; target RH 65.0 %, sample RH […]): 0.906%
- Hysteresis ([6]; target RH 75.0 %): 0.364
- Sorp Mass Change ([6]; target RH 75.0 %, sample RH 74.5 %): 1.567%
- Desorp Mass Change ([6]; target RH 75.0 %, sample RH 75.5 %): 1.931%
- Hysteresis ([6]; target RH 85.0 %): 0.604
- Sorp Mass Change ([6]; target RH 85.0 %, sample RH 84.7 %): 2.368%
- Desorp Mass Change ([6]; target RH 85.0 %, sample RH 85.8 %): 2.072%
- Desorp Mass Change [6, 7]: 5.474%
- Sorp Mass Change [6, 7]: 5.474%
- Hysteresis ([6]; target RH […]): 0.108
- Sorp Mass Change ([6]; target RH […], sample RH 34.5 %): 0.169%
- Desorp Mass Change ([6]; target RH […], sample RH 35.3 %): 0.277%
- Hygroscopicity ([6]; within 5%-55% RH): low hygroscopicity
- Hygroscopicity ([6]; within 55%-85% RH): limited hygroscopicity
- Hygroscopicity ([6]; within 85%-95% RH): significant hygroscopicity
- Relative stability, competitive slurry ([5]; Material C (with some Form A) and Form A in acetone, room temperature, 9 days): more stable than Material C

SMILES: CC(C)(c1ccc(OCc2ccnc(NS(C)(=O)=O)n2)cc1)c1cc(Cl)c(OCCCl)c(C#N)c1 [Material B]
- Stability upon drying [5]: unstable upon drying
- XRPD result after drying ([5]; 65-66° C., vacuum, 5 d): mixture of Form A and Material C
- XRPD result after drying ([5]; RT (ambient), on filter paper, 3 d): disordered Material C

SMILES: CC(C)(c1ccc(OCc2ccnc(NS(C)(=O)=O)n2)cc1)c1cc(Cl)c(OCCCl)c(C#N)c1 [Material D]
- XRPD result after drying ([5]; 50-52° C., vacuum, 3 d): desolvate into Form A

SMILES: CC(C)(c1ccc(OC[C@H](O)CNS(C)(=O)=O)cc1)c1cc(Cl)c(OC[C@H](O)CCl)c(Cl)c1 [Reference Compound X]
- IC50 [1]: 1050 nM

SMILES: CC(C)(c1ccc(OCc2ccnc(NS(C)(=O)=O)n2)cc1)c1cc(Cl)c(OCCCl)c(C#N)c1 [amorphous form of Compound I]
- solubility ([3]; 0.5% wt simulated intestinal fluid in PBS, fassgf or other biorelevant, 0.5% SIF (pH 6.5)): > 25 µg/mL
- solubility ([3]; phosphate-buffered saline, aqueous buffer, pH 6.5 PBS): > 2.5 µg/mL
- Amorphous solubility relative to crystalline solubility ([3]; simulated intestinal media): at least 20 ×
- XRPD result after storage ([5]; ambient (RT), desiccator, about 10 days): disordered Form A
- Physical stability ([5]; ambient temperature): physically not stable

— patent US11518747B2, “Solid forms of an N-terminal domain androgen receptor inhibitor and uses thereof” (ESSA Pharma, Inc., priority 2020, dated 2022)
